In general, IC50 refers to the concentration that gives 50% inhibition.

Like-named read-outs stand apart in the source and are kept apart here.

In assay [1] the target is recombinant human Mcl-1 (residues 171-327) / Bim interaction (Homo sapiens (Human), UniProt Q07820). Nature of the assay: biochemical. In kind it is binding. The settings on record: read-out: Mcl-1 HTRF IC50. For orientation: TR-FRET usually uses a lanthanide donor and a delayed reading to cut background.
For assay [2], the system named is human multiple myeloma cell line, OPM-2. As to the kind of experiment: Cell viability assay (OPM-2 10 FBS), CellTiter-Glo. In kind it is cell-based. The essentials: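 Serially diluted test compounds are incubated 16 h with cells (3000/well) in RPMI 1640 supplemented with 10% FBS. Viability is then measured by luminescence and IC50 calculated by 4-parameter logistic fit.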
On the technique in general: ATP-based viability assays read luminescence as a measure of living cells.

Where [3] appears, read: TR-FRET, Mcl-1(171-327) / biotin-Bim (51-76).
Setting [4] is: read-out: OPM-2 10% FBS IC50 IP, OPM-2 cells, 10% FBS, 16 h, CellTiter-Glo.
Where [5] appears, read: 0.1 nM Mcl-1(171-327), 0.05 nM biotin-Bim (51-76).
Where [6] appears, read: Homo sapiens, OPM-2, 16 h, read-out: OPM-2 10% FBS IC50 IP, OPM-2 cells, 10% FBS, 16 h, CellTiter-Glo.
[7] abbreviates: Homo sapiens, OPM-2, 16 h, read-out: OPM-2 10% FBS IC50 IP, OPM-2 cells, 10% FBS, 16 h incubation.

Chain of recombinant human Mcl-1 (residues 171-327) / Bim interaction (Q07820 171-327): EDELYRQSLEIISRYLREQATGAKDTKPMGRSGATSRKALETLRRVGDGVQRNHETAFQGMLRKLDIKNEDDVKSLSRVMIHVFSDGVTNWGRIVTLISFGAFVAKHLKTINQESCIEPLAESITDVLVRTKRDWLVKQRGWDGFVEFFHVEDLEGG

As to `C[C@@H]1[C@@H](C)CCC[C@@](O)(CS(=O)(=O)N(C)C(C)(C)C)[C@@H]2CC[C@H]2CN2C[C@@]3(CCCc4cc(Cl)ccc43)COc3ccc(cc32)C(=O)NS1(=O)=O` [Example 100170, 1-((1S,3′R,6′R,7′S,11′S,12′R)-6-chloro-7′-hydroxy-11′,12′-dimethyl-13′,13′-dioxido-15′-oxo-3,4-dihydro-2H-spiro[naphthalene-1,22′-[20]oxa[13]thia[1,14]diazatetracyclo [14.7.2.0~3,6~.0~19,24~]pentacosa[16,18,24]trien]-7′-yl)-N-methyl-N-(2-methyl-2-propanyl)methanesulfonamide], the IC50 in assay [1] (setting [3]) was 12.1 nM; in assay [2] (setting [4]) it was 7820 nM.

Regarding `CO[C@@]1(CN2CCN([C@H]3CCOC3)CC2)/C=C/C[C@H](C)[C@@H](C)S(=O)(=O)NC(=O)c2ccc3c(c2)N(C[C@@H]2CC[C@H]21)C[C@@]1(CCCc2cc(Cl)ccc21)CO3` (single isomer, unassigned) [Example 285], the IC50 in assay [1] (setting [5]) came to 0.107 nM; in assay [2] (read-out: OPM-2 10% FBS IC50 IP, OPM-2 cells, 10% FBS, 16 h incubation) it was 62 nM.

Regarding `C[C@@H]1[C@@H](C)C/C=C/[C@](O)(c2cccnc2F)[C@@H]2CC[C@H]2CN2C[C@@]3(CCCc4cc(Cl)ccc43)COc3ccc(cc32)C(=O)NS1(=O)=O` (single isomer, unassigned) [Example 100314], the IC50 in assay [1] (setting [3]) stood at 2.93 nM; in assay [2] (setting [4]) it was 2290 nM.

With `C[C@@H]1[C@@H](C)C/C=C/[C@](O)(C(F)(F)F)[C@@H]2CC[C@H]2CN2C[C@@]3(CCCc4cc(Cl)ccc43)COc3ccc(cc32)C(=O)NS1(=O)=O` [Example 100046, (1S,3′R,6′R,7′R,8′E,11′S,12′R)-6-chloro-7′-hydroxy-11′,12′-dimethyl-7′-(trifluoromethyl)-3,4-dihydro-2H,15′H-spiro[naphthalene-1,22′-[20]oxa[13]thia[1,14]diazatetracyclo [14.7.2.0~3,6~.0~19,24~]pentacosa[8,16,18,24]tetraen]-15′-one 13′,13′-dioxide], the IC50 in assay [1] (setting [3]) amounted to 3.76 nM; in assay [2] (setting [6]), 976 nM.

For the compound `C[C@@H]1[C@@H](C)CCC[C@](O)(c2ccccn2)[C@@H]2CC[C@H]2CN2C[C@@]3(CCCc4cc(Cl)ccc43)COc3ccc(cc32)C(=O)NS1(=O)=O` [Example 100469, (1S,3′R,6′R,7′R,11′S,12′R)-6-chloro-7′-hydroxy-11′,12′-dimethyl-7′-(2-pyridinyl)-3,4-dihydro-2H,15′H-spiro[naphthalene-1,22′-[20]oxa[13]thia[1,14]diazatetracyclo [14.7.2.0~3,6~.0~19,24~]pentacosa[16,18,24]trien]-15′-one 13′,13′-dioxide], the IC50 was 0.085 nM in assay [1] (setting [3]) and 325 nM in assay [2] (setting [6]).

Take `C[C@@H]1[C@@H](C)C/C=C/[C@@](O)([C@@H]2CCN(C)C2=O)[C@@H]2CC[C@H]2CN2C[C@@]3(CCCc4cc(Cl)ccc43)COc3ccc(cc32)C(=O)NS1(=O)=O` [Example 100109, (1S,3′R,6′R,7′S,8′E,11′S,12′R)-6-chloro-7′-hydroxy-11′,12′-dimethyl-7′-((3S)-1-methyl-2-oxo-3-pyrrolidinyl)-3,4-dihydro-2H,15′H-spiro[naphthalene-1,22′-[20]oxa[13]thia[1,14]diazatetracyclo [14.7.2.0~3,6~.0~19,24~]pentacosa[8,16,18,24]tetraen]-15′-one 13′,13′-dioxide]: the values for the IC50 in assay [1] (setting [3]) and in assay [2] (setting [4]) were 0.486 nM and 2140 nM, respectively.

As for `C[C@@H]1[C@@H](C)C/C=C/[C@@](O)(Cc2ccncn2)[C@@H]2CC[C@H]2CN2C[C@@]3(CCCc4cc(Cl)ccc43)COc3ccc(cc32)C(=O)NS1(=O)=O` [Example 100151, (1S,3′R,6′R,7′S,8′E,11′S,12′R)-6-chloro-7′-hydroxy-11′,12′-dimethyl-7′-(4-pyrimidinylmethyl)-3,4-dihydro-2H,15′H-spiro[naphthalene-1,22′-[20]oxa[13]thia[1,14]diazatetracyclo [14.7.2.0~3,6~.0~19,24~]pentacosa[8,16,18,24]tetraen]-15′-one 13′,13′-dioxide], the IC50 is 0.12 nM in assay [1] (setting [3]) and 71 nM in assay [2] (setting [4]).

With `CO[C@]1(CN2C[C@@H](C)N(C)[C@@H](C)C2)/C=C/C[C@H](C)[C@@H](C)S(=O)(=O)NC(=O)c2ccc3c(c2)N(C[C@@H]2CC[C@H]21)C[C@@]1(CCCc2cc(Cl)ccc21)CO3` [Example 336, (1S,3′R,6′R,7′R,8′E,11′S,12′R)-6-chloro-7′-methoxy-11′,12′-dimethyl-7′-(((3R,5S)-3,4,5-trimethyl-1-piperazinyl)methyl)-3,4-dihydro-2H,15′H-spiro[naphthalene-1,22′-[20]oxa[13]thia[1,14]diazatetracyclo [14.7.2.0~3,6~.0~19,24~]pentacosa[8,16,18,24]tetraen]-15′-one 13′,13′-dioxide], the IC50 was found to be 0.085 nM in assay [1] (setting [5]) and 51 nM in assay [2] (setting [7]).

Consider `C[C@@H]1[C@@H](C)CCC[C@]2(CC(N3CCN(C)CC3)=NO2)[C@@H]2CC[C@H]2CN2C[C@@]3(CCCc4cc(Cl)ccc43)COc3ccc(cc32)C(=O)NS1(=O)=O` [Example 100216, (1S,3′R,6′R,7′S,11′S,12′R)-6-chloro-11′,12′-dimethyl-3″-(4-methyl-1-piperazinyl)-3,4-dihydro-2H,4″H,15′H-dispiro[naphthalene-1,22′-[20]oxa[13]thia[1,14]diazatetracyclo [14.7.2.0~3,6~.0~19,24~]pentacosa[16,18,24]triene-7′,5″-[1,2]oxazol]-15′-one 13′,13′-dioxide], for which the IC50 in assay [1] (setting [3]) was 0.311 nM; in assay [2] (setting [6]), 374 nM.

As to `CN[C@@H]1C[C@H](C)[C@@H](C)S(=O)(=O)NC(=O)c2ccc3c(c2)N(C[C@@H]2CC[C@H]2[C@@](C)(O)C1)C[C@@]1(CCCc2cc(Cl)ccc21)CO3` [Example 100065, (1S,3′R,6′R,7′S,9′R,11′S,12′R)-6-chloro-7′-hydroxy-7′,11′,12′-trimethyl-9′-(methylamino)-3,4-dihydro-2H,15′H-spiro[naphthalene-1,22′-[20]oxa[13]thia[1,14]diazatetracyclo [14.7.2.0~3,6~.0~19,24~]pentacosa[16,18,24]trien]-15′-one 13′,13′-dioxide], the IC50 turned out to be 4.85 nM in assay [1] (setting [3]) and 7390 nM in assay [2] (setting [4]).

As to `CO[C@]1(Cc2noc(C)c2C)/C=C/C[C@H](C)[C@@H](C)S(=O)(=O)NC(=O)c2ccc3c(c2)N(C[C@@H]2CC[C@H]21)C[C@@]1(CCCc2cc(Cl)ccc21)CO3` [Example 100574, (1S,3′R,6′R,7′R,8′E,11′S,12′R)-6-chloro-7′-((4,5-dimethyl-1,2-oxazol-3-yl)methyl)-7′-methoxy-11′,12′-dimethyl-3,4-dihydro-2H,15′H-spiro[naphthalene-1,22′-[20]oxa[13]thia[1,14]diazatetracyclo [14.7.2.0~3,6~.0~19,24~]pentacosa[8,16,18,24]tetraen]-15′-one 13′,13′-dioxide], the IC50 in assay [1] (setting [3]) was 1.42 nM; in assay [2] (setting [6]), 4320 nM.

On to `C[C@@H]1[C@@H](C)CCC[C@](O)(Cc2ccccc2)[C@@H]2CC[C@H]2CN2C[C@@]3(CCCc4cc(Cl)ccc43)COc3ccc(cc32)C(=O)NS1(=O)=O` (single isomer, unassigned) [Example 100319], for which the IC50 in assay [1] (setting [3]) stood at 0.126 nM; in assay [2] (setting [6]) it was 506 nM.

For `CO[C@@]1(CN2CCC3(CC2)CN(C)C(=O)O3)/C=C/C[C@H](C)[C@@H](C)S(=O)(=O)NC(=O)c2ccc3c(c2)N(C[C@@H]2CC[C@H]21)C[C@@]1(CCCc2cc(Cl)ccc21)CO3` [Example 290, (1S,3′R,6′R,7′S,8′E,11′S,12′R)-6-chloro-7′-methoxy-11′,12′-dimethyl-7′-((3-methyl-2-oxo-1-oxa-3,8-diazaspiro[4.5]dec-8-yl)methyl)-3,4-dihydro-2H,15′H-spiro[naphthalene-1,22′-[20]oxa[13]thia[1,14]diazatetracyclo [14.7.2.0~3,6~.0~19,24~]pentacosa[8,16,18,24]tetraen]-15′-one 13′,13′-dioxide], the concentration for half-maximal inhibition (IC50) in assay [1] (setting [5]) amounted to 0.215 nM; in assay [2] (setting [7]), 149 nM.

For the compound `CO[C@@]1(CN2CCN(C3COC3)CC2)/C=C/C[C@H](C)[C@@H](C)S(=O)(=O)NC(=O)c2ccc3c(c2)N(C[C@@H]2CC[C@H]21)C[C@@]1(CCCc2cc(Cl)ccc21)CO3` [Example 250, (1S,3′R,6′R,7′S,8′E,11′S,12′R)-6-chloro-7′-methoxy-11′,12′-dimethyl-7′-((4-(3-oxetanyl)-1-piperazinyl)methyl)-3,4-dihydro-2H,15′H-spiro[naphthalene-1,22′-[20]oxa[13]thia[1,14]diazatetracyclo [14.7.2.0~3,6~.0~19,24~]pentacosa[8,16,18,24]tetraen]-15′-one 13′,13′-dioxide], the IC50 came to 0.071 nM in assay [1] (setting [5]) and 47 nM in assay [2] (setting [7]).

In the case of `C[C@@H]1[C@@H](C)CCC[C@](O)(CC(=O)Nc2ccncn2)[C@@H]2CC[C@H]2CN2C[C@@]3(CCCc4cc(Cl)ccc43)COc3ccc(cc32)C(=O)NS1(=O)=O` [Example 100174, 2-((1S,3′R,6′R,7′S,11′S,12′R)-6-chloro-7′-hydroxy-11′,12′-dimethyl-13′,13′-dioxido-15′-oxo-3,4-dihydro-2H-spiro[naphthalene-1,22′-[20]oxa[13]thia[1,14]diazatetracyclo [14.7.2.0~3,6~.0~19,24~]pentacosa[16,18,24]trien]-7′-yl)-N-4-pyrimidinylacetamide], the IC50 was determined as 2.02 nM in assay [1] (setting [3]) and 1910 nM in assay [2] (setting [6]).

These data come from patent US10821115B2, “Compounds that inhibit Mcl-1 protein” (priority 2017, dated 2020).
